Data reported in paper PMC5589637, “New perspectives of cobalt tris(bipyridine) system: anti-cancer effect and its collateral sensitivity towards multidrug-resistant (MDR) cancers” (Oncotarget, 2017).

Columns and labels:
[1] = test system: A549 taxol-sensitive cancer cells; assay: MTT cytotoxicity, taxol-sensitive A549; format: cell-based; details: 72 h
Source text: (§1) All cells were obtained from the American Type Culture Collection (Rockville, MD, USA) unless otherwise specified. Immortalized wild-type and Atg7-deficient mouse embryonic fibroblasts (MEFs) were kindly provided by Professor Masaaki Komatsu (Juntendo University, School of Medicine, Japan). Taxol-resistant types of MCF-7, HCT-8, A549 cancers cells and cisplatin-resistant SGC7901 cancer cells were purchased from KeyGEN BioTECH, China. Cisplatin-sensitive or –resistant A2780, OV2008 and C13 cancer cells were kindly provided by Prof. Benjamin Tsang (Department of Obstetrics and Gynecology and Department of Cellular and Molecular Medicine, University of Ottawa, Canada). HCT116 p53^+/+ and p53^−/− isogenic human colon cancer cells were kindly provided by Professor Bert Vogelstein (Ludwig Center at Johns Hopkins, Howard Hughes Medical Institute, USA). All media were supplemented with 10% fetal bovine serum and antibiotics penicillin (50 U/ml) and streptomycin (50 μg/ml; Invitrogen, Paisley, Scotland, UK). All cell cultures were incubated at 37°C in a 5% humidified CO2 incubator.
(§2) All tested compounds were dissolved in DMSO at a final concentration of 50 mmol/L and stored at −20°C before use. Cytotoxicity was assessed by using the 3-(4,5-dimethylthiazol-2-yl)-2, 5-diphenyltetrazolium bromide (MTT) (5.0 mg/ml) assay as previously described. Briefly, 4×10^3 cells per well were seeded in 96-well plates before drug treatments. After overnight culture, the cells were then exposed to different concentrations of selected compounds ([…]) for 72 hours. Cells without drug treatment were used as control. Subsequently, MTT (10 μL) solution was added to each well and incubated at 37°C for 4 hours followed by the addition of 100 μL solubilization buffer (10%SDS in 0.01 mol/L HCl) and overnight incubation. A570 nm was then determined in each well on the next day. The percentage of cell viability was calculated using the following formula: Cell viability (%) = Atreated/Acontrol × 100. Data were obtained from three independent experiments.

[2] = test system: H1975 (EGFR mutant lung cancer) cells; assay: MTT cytotoxicity assay, H1975; format: cell-based; details: 72 h
Protocol: as §2

HeLa cancer cells [3] = assay: Flow cytometry cell-cycle analysis; format: cell-based; details: 24 h, propidium iodide flow cytometry
Source text: Cobalt complex 2-treated cells were harvested and analysed by flow cytometry using propidium iodide staining (BD Biosciences, San Jose, CA, USA) according to the manufacturer instructions. Cell population in different phase of cell cycle were quantitatively counted by a flow cytometer (BD FACSAria III, San Jose, CA, USA).

HeLa cancer cells [4] = assay: Western blot of S phase cell cycle markers; format: cell-based; details: 24 h, 10 and 15 μM
Protocol: (§3) Western blot analysis was carried out following standard methods. Cells were lysed with RIPA lysis buffer with protease and phosphatase inhibitor cocktails. Protein concentrations were determined using the Bio-Rad protein assay (Bio-Rad Laboratories, Inc., Hercules, CA, USA). After electrophoresis, the proteins from SDS/PAGE were electro-transferred to a Hybond enhanced chemiluminescence nitrocellulose membrane (Amersham Biosciences, NJ, USA), which was then blocked with 5% dried milk for 1 hour. After washing, the blot was incubated with the indicated primary antibodies overnight at 4°C. Detection was performed using appropriated HRP-conjugated secondary antibodies for 1 hour at RT followed by chemiluminescence (Invitrogen).

[5] = test system: HCT116 p53^-/- colon cancer cells; assay: MTT cytotoxicity, HCT116 p53-/-; format: cell-based, human
Source text: as §1, §2

[6] = test system: SGC-7901 cisplatin-sensitive cancer cells; assay: MTT cytotoxicity, cisplatin-sensitive SGC-7901; format: cell-based; details: 72 h
Source text: as §1, §2

Atg7^−/− deficient MEFs = assay: MTT cytotoxicity, Atg7 deficient MEFs; format: cell-based, mouse; details: 72 h
Source text: as §1, with “All media were supplemented with 10% fetal bovine serum and antibiotics penicillin (50 U/ml) and streptomycin (50 μg/ml; Invitrogen, Paisley, Scotland, UK). All cell cultures were incubated at 37°C in a 5% humidified CO2 incubator.” left out
All tested compounds were dissolved in DMSO at a final concentration of 50 mmol/L and stored at −20°C before use. Cytotoxicity was assessed by using the 3-(4,5-dimethylthiazol-2-yl)-2, 5-diphenyltetrazolium bromide (MTT) (5.0 mg/ml) assay as previously described. […] A570 nm was then determined in each well on the next day. The percentage of cell viability was calculated using the following formula: Cell viability (%) = Atreated/Acontrol × 100. […]

[7] = test system: Hep3B (liver cancer) cells; assay: MTT cytotoxicity assay, Hep 3B; format: cell-based; details: 72 h
Protocol: as §2

[8] = test system: LLC-1 Lewis lung cancer xenograft; assay: LLC-1 xenograft tumor model; format: in vivo; details: LLC-1 bearing C57BL/6 mice, 10 days
Protocol: The mice were maintained under specific pathogen-free condition in a 12-h light-dark cycle. 8-week-old C57BL/6 mice (female body weight: 22 ± 4 g and male body weight 25 ± 4g) were purchased from The Chinese University of Hong Kong. The animals were housed in a 12 hours light/dark cycles and temperature-controlled room and given ad libitum access to food and water. All of the experiments were carried out in accordance to the “Institutional Animal Care and User Committee guidelines” of the Macau University of Science and Technology. C57BL/6 were randomly grouped (10 mice per group) and intraperitoneal injected with 40 mg/kg or 80 mg/kg of cobalt complex 2 or 40 mg/kg or 80 mg/kg of water-soluble form of cobalt complex 2. Xenograft mouse model was constructed as previously described. LLC-1 Lewis lung cancer cells (1 × 10^6 cells) were subcutaneously injected in the right dorsal region of the mice. After tumors grew to about 100 mm^3, the mice were randomly divided into 3 groups: 1) the control group, 2) 40 or 80 mg/kg cobalt complex 2 group, and 3) 40 mg/kg cobalt complex 2W (water soluble form). […] The body weight of each mouse was recorded with the tumor volume determined by Vernier caliper using the formula of L × W^2 × 0.52, where Lis the longest diameter of tumor and W is the shortest diameter of tumor. […]

[9] = test system: HCT-8 taxol-sensitive cancer cells; assay: MTT cytotoxicity, taxol-sensitive HCT-8; format: cell-based; details: 72 h
Source text: as §1, §2

[10] = test system: normal human LO2 hepatocytes; assay: MTT cytotoxicity assay, LO2; format: cell-based; details: 72 h
Protocol: as §2

HeLa cancer cells [11] = assay: Western blot of autophagy markers; format: cell-based
Protocol: as §3

[12] = test system: HCT-8 taxol-resistant cancer cells; assay: MTT cytotoxicity, taxol-resistant HCT-8; format: cell-based
Source text: as §1, §2

[13] = test system: MCF-7 taxol-sensitive cancer cells; assay: MTT cytotoxicity, taxol-sensitive MCF-7; format: cell-based; details: 72 h
Source text: as §1, §2

[14] = test system: A2780 cisplatin-resistant cancer cells; assay: MTT cytotoxicity, cisplatin-resistant A2780; format: cell-based
Source text: as §1, §2

H1299 cell = assay: Western blot of cell invasion markers MMP-9 and ICAM-1; format: cell-based, human; details: 0.5 μM
Protocol: as §3

Structure (SMILES): Cc1ccnc(-c2cc(C)ccn2)c1.Cc1ccnc(-c2cc(C)ccn2)c1.Cc1ccnc(-c2cc(C)ccn2)c1.F[P-](F)(F)(F)(F)F.F[P-](F)(F)(F)(F)F.F[P-](F)(F)(F)(F)F.[Co+3] [complex 2, [Co^III(4,4’-Me2-bpy)3](PF6)3]
- IC50 [1]: 11.5 µM
- IC50 [2]: 8.84 µM
- effect on cell cycle progression, high concentration (HeLa cancer cells [3]; high concentration): arrest HeLa cancer cell in S-phase
- effect on cell cycle progression, low concentration (HeLa cancer cells [3]; low concentration): negligible effect on cell cycle progression
- protein level of cyclin A and E2F (HeLa cancer cells [4]): significant accumulation
- protein level of cyclin D and E, cdk4, and cdk2 (HeLa cancer cells [4]): decreased
- IC50 ([5]; HCT116 p53-/-, MTT, 72 h): 9.07 µM
- Resistant Factor, HCT116 p53-/- vs p53+/+ ([5]; IC50 p53-/- over IC50 p53+/+): 0.59
- IC50 [6]: 11.1 µM
- IC50 (Atg7^−/− deficient MEFs): 14 µM
- IC50 [7]: 3.7 µM
- reduction in tumor volume ([8]; IP 40 mg/kg/day or 80 mg/kg/day, P < 0.05): up to 50%
- body weight ([8]; IP daily): no significant reduction in body weight
- IC50 [9]: 3.39 µM
- IC50 [10]: 13.2 µM
- protein expression of p62 and P-p70S6K (HeLa cancer cells [11]; 10μM and 15μM): prominently reduced
- LC3-II protein conversion (HeLa cancer cells [11]; 24 h): dose-dependently increased the LC3-II protein conversion
- expression of beclin-1 protein (HeLa cancer cells [11]; 24 h, vs untreated control): upregulated
- IC50 ([12]; HCT-8 taxol-resistant, MTT, 72 h): 1.22 µM
- Resistant Factor, HCT-8 ([12]; IC50 of taxol-resistant cells over IC50 of taxol-sensitive cells, HCT-8): 0.36
- IC50 [13]: 4 µM
- IC50 ([14]; A2780 cisplatin-resistant, MTT, 72 h): 10.7 µM
- Resistant Factor, A2780 ([14]; cisplatin-resistant over cisplatin-sensitive IC50, A2780): 0.87
- expression of MMP-9 and ICAM-1 (H1299 cell): significantly downregulated
